Experimental findings from EP0440298A1, “Topical preparations for treating human nails” (BROCADES PHARMA B.V., priority 1990, dated 1991) are described below.

Structures are written as SMILES.

Data set [1] can be described thus: Weight increase of nail clippings during immersion in a lotion (Example 1). Also noted: species or system Human. How it is done:
Solutions (lotions) were prepared, containing (v/v) 40% of distilled water, 40% of methyl ethyl ketone and 20% of isopropyl alcohol.
To these lotions were added salicylic acid, NAC, 1,4-dithiothreitol or mercaptoethylamine, in w/v concentrations as further specified in Table 1.
To distilled water were added glutathione, mercaptoethanol or urea, in w/v concentrations as further specified in Table 1.
(§1) Human nail clippings were immersed in the test and control lotions at ambient temperature and their weight increase expressed as % of their original weight.

Data set [2] can be described thus: Comparison of sulfhydryl compounds: weight increase of nail clippings during immersion in a lotion (Example 10). Also noted: species or system human. Conditions: 0.1 M in lotion of 50% v/v ethanol in distilled water. How it is done:
as §1
The effects of 0.1 M of each of NAC (pH 2.3), 1,4-dithiothreitol (DTT, not claimed, pH 4.5) and ammonium thioglycolate (ATG, not claimed, pH 9.0), in a lotion consisting of 50% v/v ethanol in distilled water were compared, as in Example 1. The immersion period of the human nail clippings in the control and test lotions was 72 hours.

Data set [3] is classed as in vitro ADME, human. How it is done:
On human nail discs of 6 mm diameter were mounted 1.5 cm pieces of tubing of 4 mm outer and 3 mm inner diameter, in each of which was poured 30 µl of one of the above lotions (n = 2 x 3). The free (ventral) surfaces of the nail discs were kept moist on a pad soaked in saline.
After 48 hours of incubation at 30°C and the discs were sectioned (50 µm) parallel to their dorsal surface, using a freeze-microtome. Radioactivity was measured in the separate sections, after which the amount of penetrated oxiconazole was calculated.
To lotions consisting of 50% v/v of ethanol in distilled water were added 0.1 M of NAC (pH 2.3), of 1,4-dithiothreitol (DTT, not claimed, pH 4.5) or of ammonium thioglycolate (ATG, not claimed, pH 9.0), as in Example 10. To all three solutions was also added 1% w/v of oxiconazole, containing a known amount (1 µCi per 30 µl) of radioactive ¹⁴C oxiconazole. These lotions were tested in an experimental set-up as in Examples 6 and 9.

In the case of `O[C@H](CS)[C@H](O)CS` (relative stereo) [1,4-Dithiothreitol, 1,4-dithiothreitol], the “Average % weight increase during immersion (hours)” value in data set [1] (20 % w/v in lotion, 1 hour) was 21%; in data set [1] (20 % w/v in lotion, 3 hours), 32%; in data set [1] (20 % w/v in lotion, 6 hours) it was 38%; in data set [1] (20 % w/v in lotion, 24 hours) it was 51%; in data set [1] (20 % w/v in lotion, 48 hours) it was 50%; in data set [1] (20 % w/v in lotion, 72 hours) it was 58%. The “Average % weight increase after immersion during 72 hours” value in data set [2] is recorded as 49%. For the same compound, the “Average amount of oxiconazole (μg), Total” value in data set [3] was 10.02 µg.

In the case of `O=C(O)CS` [Ammonium thioglycolate, ammonium thioglycolate], in data set [2], the “Average % weight increase after immersion during 72 hours” value is given as 52%. Also, the “Average amount of oxiconazole (μg), Total” value in data set [3] was determined as 2.34 µg.

As for `N[C@@H](CCC(=O)N[C@@H](CS)C(=O)NCC(=O)O)C(=O)O` [Glutathione, glutathione], the “Average % weight increase during immersion (hours)” value in data set [1] (10 % w/v in distilled water, 1 hour) was found to be 30%; in data set [1] (10 % w/v in distilled water, 3 hours) it was 32%; in data set [1] (10 % w/v in distilled water, 6 hours), 33%; in data set [1] (10 % w/v in distilled water, 24 hours), 44%; in data set [1] (10 % w/v in distilled water, 48 hours), 58%; in data set [1] (10 % w/v in distilled water, 72 hours), 61%.

`NCCS` [Mercaptoethyl-amine, mercaptoethylamine]: the “Average % weight increase during immersion (hours)” value in data set [1] (20 % w/v in lotion, 1 hour) is 10%; in data set [1] (20 % w/v in lotion, 3 hours) it was 16%; in data set [1] (20 % w/v in lotion, 6 hours), 21%; in data set [1] (20 % w/v in lotion, 24 hours), 38%; in data set [1] (20 % w/v in lotion, 48 hours), 55%; in data set [1] (20 % w/v in lotion, 72 hours), 64%.

With `O=C(O)c1ccccc1O` [Salicylic acid], the “Average % weight increase during immersion (hours)” value is 17% in data set [1] (14 % w/v in lotion (water/methyl ethyl ketone/isopropyl alcohol), 1 hour, ambient temperature); 24% in data set [1] (14 % w/v in lotion, 3 hours); 26% in data set [1] (14 % w/v in lotion, 6 hours); 29% in data set [1] (14 % w/v in lotion, 24 hours); 30% in data set [1] (14 % w/v in lotion, 48 hours); 30% in data set [1] (14 % w/v in lotion, 72 hours).

`NC(N)=O` [Urea, urea]: the “Average % weight increase during immersion (hours)” value in data set [1] (50 % w/v in distilled water, 1 hour) is given as 22%; in data set [1] (50 % w/v in distilled water, 3 hours), 24%; in data set [1] (50 % w/v in distilled water, 6 hours), 32%; in data set [1] (50 % w/v in distilled water, 24 hours) it was 35%; in data set [1] (50 % w/v in distilled water, 48 hours), 36%; in data set [1] (50 % w/v in distilled water, 72 hours), 37%.
